Data as given in patent US20250154163A1, “Pyrimidinone-Containing 17-Beta-Hydroxysteroid Dehydrogenase Type 13 Inhibitors” (ENANTA PHARMACEUTICALS, INC., priority 2023, published 2025).

Experiments:
[1] = test system: human precision cut lung slices from a normal donor treated with fibrotic cocktail; experiment: Human precision cut lung slice (PCLS) culture, normal donor treated with fibrotic cocktail; assay type: cell-based; conditions: normal donor PCLS treated 8 days with pro-fibrotic cocktail (FC); FIG. 2a, FIG. 3
Procedure: Human PCLS were generated from lung explants of patients with pulmonary fibrosis (donor ID #221028) or normal donor (donor ID #220730). Cryopreserved hPCLSs were obtained from Institute for In Vitro Sciences (IIVS) and maintained with air-liquid interface culture approach under 37° C., 5% CO2 and 95% humidity. hPCLS were cultured in DMEM-F12 (Invitrogen, Cat No. 11330032) containing 0.2% primocin (Invivogen, Cat No. ant-pm-1) and 1% insulin-transferrin-selenium (ITS-G; Invitrogen, Cat No. 41400045), after initial acclimation in acclimation media, including culture media supplemented with 1% antibiotic antimycotic solution (Invitrogen, Cat No. 15240062), 2 mM Hydrocortisone (Millipore Sigma,) and 5 mg/ml 2-phospho-L-abscorbic acid trisodium salt (Millipore Sigma, Cat No. 49752-10G) for 3 days. Slices of tissue were flatly grown in the tissue culture inserts with 0.4 μm pores of a 12-well plate (StemCell Technologies, Cat No. 1001027), supplemented with 100 μl culture media in the apical side containing PCLSs, and 900 μL culture media in the basal compartment. Media were changed every 48 hours. hPCLS were treated and randomly assigned in replicates of 6-8 per condition 7 days after recovery from cryopreservation. […] IPF donor PCLS were collected at day 8 for subsequent RNA isolation and gene expression quantification. […]

[2] = target: T1, human HSD17β13 (stable HEK293T cell line overexpressing human HSD17β13) (Homo sapiens, UniProt Q7Z5P4); experiment: HSD17β13 inhibitor cell-based screening assay (conversion of estradiol-d2 to estrone-d2 by RF-MS); conditions: conversion of estradiol-d2 to estrone-d2 after 24 hours
T1 construct: expressed in transfected cells
T1 sequence (Q7Z5P4 20-300): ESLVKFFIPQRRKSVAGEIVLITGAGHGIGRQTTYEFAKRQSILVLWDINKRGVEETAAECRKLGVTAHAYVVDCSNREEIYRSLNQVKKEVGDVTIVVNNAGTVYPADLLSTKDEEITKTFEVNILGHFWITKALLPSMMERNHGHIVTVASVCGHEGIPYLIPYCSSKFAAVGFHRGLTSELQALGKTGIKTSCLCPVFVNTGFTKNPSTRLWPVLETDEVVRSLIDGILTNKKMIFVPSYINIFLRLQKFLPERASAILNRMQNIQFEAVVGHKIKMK
Procedure, shortened: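 Cellular IC50 is based on 24-h conversion of estradiol-d2 (5 μM final) to estrone-d2, measured by RF-MS in acetonitrile-precipitated supernatants. Assay uses human HSD17β13-overexpressing HEK293T cells (7.5E3/well, 1% charcoal/dextran FBS MEM), with compounds dosed as a 9-point 1:3 series to 10 μM final. ATPlite luminescence on overexpressing and parent lines measured viability.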

Row | SMILES | collagen (COL1A1) mRNA expression [1] | IC50 [2] [nM]
1 | COc1ccc(-c2nc3sc4c(O)c(Cl)ccc4c3c(=O)n2Cc2cnco2)c(C2CC2)c1 [Example 26, 7-chloro-2-(2-cyclopropyl-4-methoxyphenyl)-8-hydroxy-3-(oxazol-5-ylmethyl)benzo[4,5]thieno[2,3-d]pyrimidin-4(3H)-one] | decreased | < 100
2 | CS(=O)(=O)c1ccc(-c2nc3sc4c(O)c(Cl)ccc4c3c(=O)n2Cc2cnc(C(F)(F)F)nc2)c(C2CC2)c1 [Example 64, 7-chloro-2-(2-cyclopropyl-4-(methylsulfonyl)phenyl)-8-hydroxy-3-((2-(trifluoromethyl)pyrimidin-5-yl)methyl)benzo[4,5]thieno[2,3-d]pyrimidin-4(3H)-one] | decreased | < 100
